Reference: US20110217713A1 (On-Q-ity, priority 2010, published 2011)

Test system: non-small cell lung cancer patient specimens (adenocarcinomas and squamous cell carcinoma)
Experiment: International Adjuvant Lung Trial (IALT): cisplatin-based therapy vs observation, DFS/OS against IHC DNA repair biomarker Q-scores (Cox PH models)
Format: in vivo, human
Method: An immunohistochemical evaluation of DNA Repair Proteins was conducted on a large international patient specimen collection from the IALT trial (International Adjuvant Lung Trial). This clinical trial originally comprised approximately 1867 non-small cell lung cancer patient specimens (adenocarcinomas and squamous cell carcinoma) and was designed to test clinical parameters for patients receiving either cisplatin-based therapy or those considered observation. One problem with testing of biomarkers in general from clinical trials is that the patient population treatments are generally a mixture of several different treatments and combinations of such and so results may be confounded by interactions of various treatments. However, the IALT trial represents pristine treatment arms of cisplatin and observation and thus is relatively free of confounding affects due to treatment variation.
International Adjuvant Lung Cancer Trial (IALT) NSCLC FFPE patient specimens constructed on TMAs (13 total) were stained by IHC for DNA repair biomarkers: ATM, MSH2, ERCC1, p53, pMK2, PARP1, BRCA1, XPF. An average of 603 patients were analyzed for each biomarker. Tumor biomarker nuclear or cytoplasmic levels were determined using digital image user defined macros. Scores were generated based on weighted intensity and quantity of stained cells. In reference to accompanying diagrams in the Powerpoint files, please note that a wide dynamic range achieved during assay development and optimization in commercially available TMAs is translationally achieved when patients comprising this study population are stained, annotated for tumor region and scored by user-defined macros.
Previous studies have utilized standard pathologist-based scoring, thus we chose to optimize the IHC-based assessment of biomarker levels using digital pathology and weighted scoring. This endeavor is undertaken so that for a given population a continuum of scores (herein referred to as Q-scores) with a broad dynamic range may be generated by user defined macros. Here, scoring of individual tumor cells comprising each patient specimen is generated and then patients assembled into a population continuum of scores against which finer cut-points may tested and established rather than crude binning methods as employed in previous studies.
Q-score=10*(% of 10+cells)+9*(% of 9+cells)+8*(% of 8+cells)+7*(% of 7+cells) . . . 1*(% of 1+cells)
Cox PH models adjusted for relevant clinical and stratification variables were used in the univariate analyses of Disease-Free Survival (DFS) and Overall Survival (OS). Initial analyses were conducted using biomarker Q scores as continuous variables against clinical endpoint metrics.

[1] = ERCC1 model, ADENOCARCINOMA, Without variables
[2] = ERCC1 model, SQUAMOUS CELLS, With adjustment variables
[3] = ERCC1 model, SQUAMOUS CELLS, With selected variables
[4] = ERCC1 model, SQUAMOUS CELLS, Without variables
[5] = Mean Q score PMK2 nuclear (PMK2MN), Adenocarcinoma, with adjustment variables
[6] = Mean Q score PMK2 nuclear (PMK2MN), Adenocarcinoma, with selected variables
[7] = Mean Q score PMK2 nuclear (PMK2MN), Adenocarcinoma, without variables
[8] = Mean Q score PMK2 nuclear (PMK2MN), Squamous Cells, with adjustment variables
[9] = Mean Q score PMK2 nuclear (PMK2MN), Squamous Cells, with selected variables
[10] = Mean Q score PMK2 nuclear (PMK2MN), Squamous Cells, without variables
[11] = Mean Q score of PMK2 cytoplasm divided by nuclear (PMK2MCNp), Adenocarcinoma, with adjustment variables
[12] = Mean Q score of PMK2 cytoplasm divided by nuclear (PMK2MCNp), Adenocarcinoma, with selected variables
[13] = Mean Q score of PMK2 cytoplasm divided by nuclear (PMK2MCNp), Adenocarcinoma, without variables
[14] = Mean Q score sum of PMK2 cytoplasm & nuclear (PMK2MCNs), Adenocarcinoma, with adjustment variables
[15] = Mean Q score sum of PMK2 cytoplasm & nuclear (PMK2MCNs), Adenocarcinoma, with selected variables
[16] = Mean Q score sum of PMK2 cytoplasm & nuclear (PMK2MCNs), Adenocarcinoma, without variables
[17] = Mean Q score sum of PMK2 cytoplasm & nuclear (PMK2MCNs), Squamous Cells, with adjustment variables
[18] = Mean Q score sum of PMK2 cytoplasm & nuclear (PMK2MCNs), Squamous Cells, with selected variables
[19] = Mean Q score sum of PMK2 cytoplasm & nuclear (PMK2MCNs), Squamous Cells, without variables
[20] = Overall Survival, MEAN Q SCORE PMK2 CYTOPLASM, Adenocarcinoma, With adjustment variables
[21] = Overall Survival, MEAN Q SCORE PMK2 CYTOPLASM, Adenocarcinoma, With selected variables
[22] = Overall Survival, MEAN Q SCORE PMK2 CYTOPLASM, Adenocarcinoma, Without variables
[23] = Overall Survival, MEAN Q SCORE PMK2 CYTOPLASM, Squamous Cells, With selected variables
[24] = Overall Survival, MEAN Q SCORE PMK2 CYTOPLASM, Squamous Cells, Without variables
[25] = PARP1 model, SQUAMOUS CELLS, With adjustment variables
[26] = PARP1 model, SQUAMOUS CELLS, With selected variables
[27] = PARP1 model, SQUAMOUS CELLS, Without variables
[28] = XPF model, ADENOCARCINOMA, With adjustment variables
[29] = XPF model, ADENOCARCINOMA, With selected variables
[30] = XPF model, ADENOCARCINOMA, Without variables
[31] = XPF model, SQUAMOUS CELLS, With adjustment variables
[32] = XPF model, SQUAMOUS CELLS, With selected variables
[33] = XPF model, SQUAMOUS CELLS, Without variables

N.N.[Cl][Pt][Cl] [cisplatin]
HazardRatio, Treatment (ERCC1 model, ADENOCARCINOMA, With selected variables): 0.765
HazardRatio, ERCC1_Treatment [1]: 1.024
HazardRatio, Treatment [1]: 1.040
HazardRatio, ERCC1_Treatment [2]: 1.070
HazardRatio, Treatment [2]: 0.731
HazardRatio, ERCC1_Treatment [3]: 1.052
HazardRatio, Treatment [3]: 0.781
HazardRatio, ERCC1_Treatment [4]: 1.054
HazardRatio, Treatment [4]: 0.773
HazardRatio, PMK2MN_Treatment interaction (Disease Free Survival) [5]: 1.077
HazardRatio, Treatment (Disease Free Survival) [5]: 0.811
HazardRatio, PMK2MN_Treatment interaction (Disease Free Survival) [6]: 1.084
HazardRatio, Treatment (Disease Free Survival) [6]: 0.802
HazardRatio, PMK2MN_Treatment interaction (Disease Free Survival) [7]: 0.956
HazardRatio, Treatment (Disease Free Survival) [7]: 1.146
HazardRatio, PMK2MN_Treatment interaction (Disease Free Survival) [8]: 1.145
HazardRatio, Treatment (Disease Free Survival) [8]: 0.737
HazardRatio, PMK2MN_Treatment interaction (Disease Free Survival) [9]: 1.145
HazardRatio, Treatment (Disease Free Survival) [9]: 0.750
HazardRatio, PMK2MN_Treatment interaction (Disease Free Survival) [10]: 1.111
HazardRatio, Treatment (Disease Free Survival) [10]: 0.780
HazardRatio, PMK2MCNp_Treatment interaction (Disease Free Survival) [11]: 0.000
HazardRatio, Treatment (Disease Free Survival) [11]: 0.954
HazardRatio, PMK2MCNp_Treatment interaction (Disease Free Survival) [12]: 0.000
HazardRatio, Treatment (Disease Free Survival) [12]: 0.992
HazardRatio, PMK2MCNp_Treatment interaction (Disease Free Survival) [13]: 0.000
HazardRatio, Treatment (Disease Free Survival) [13]: 1.177
HazardRatio, Treatment (Disease Free Survival) (Mean Q score of PMK2 cytoplasm divided by nuclear (PMK2MCNp), Squamous Cells, with adjustment variables): 0.612
HazardRatio, Treatment (Disease Free Survival) (Mean Q score of PMK2 cytoplasm divided by nuclear (PMK2MCNp), Squamous Cells, with selected variables): 0.645
HazardRatio, Treatment (Disease Free Survival) (Mean Q score of PMK2 cytoplasm divided by nuclear (PMK2MCNp), Squamous Cells, without variables): 0.726
HazardRatio, PMK2MCNs_Treatment interaction (Disease Free Survival) [14]: 1.041
HazardRatio, Treatment (Disease Free Survival) [14]: 0.832
HazardRatio, PMK2MCNs_Treatment interaction (Disease Free Survival) [15]: 1.044
HazardRatio, Treatment (Disease Free Survival) [15]: 0.828
HazardRatio, PMK2MCNs_Treatment interaction (Disease Free Survival) [16]: 0.939
HazardRatio, Treatment (Disease Free Survival) [16]: 1.203
HazardRatio, PMK2MCNs_Treatment interaction (Disease Free Survival) [17]: 1.091
HazardRatio, Treatment (Disease Free Survival) [17]: 0.751
HazardRatio, PMK2MCNs_Treatment interaction (Disease Free Survival) [18]: 1.090
HazardRatio, Treatment (Disease Free Survival) [18]: 0.766
HazardRatio, PMK2MCNs_Treatment interaction (Disease Free Survival) [19]: 1.066
HazardRatio, Treatment (Disease Free Survival) [19]: 0.798
HazardRatio, PMK2MC_Treatrnent [20]: 1.001
HazardRatio, Treatment [20]: 0.883
HazardRatio, PMK2MC_Treatment [21]: 0.972
HazardRatio, Treatment [21]: 0.891
HazardRatio, PMK2MC_Treatment [22]: 0.639
HazardRatio, Treatment [22]: 1.264
HazardRatio, PMK2MC_Treatment [23]: 1.240
HazardRatio, Treatment [23]: 0.803
HazardRatio, PMK2MC_Treatment [24]: 1.147
HazardRatio, Treatment [24]: 0.835
HazardRatio, PARP1_Treatment [25]: 1.082
HazardRatio, Treatment [25]: 0.621
HazardRatio, PARP1_Treatment [26]: 1.062
HazardRatio, Treatment [26]: 0.687
HazardRatio, PARP1_Treatment [27]: 1.107
HazardRatio, Treatment [27]: 0.572
predictive HR, p53 (SCC, univariate Cox PH, biomarker Q score, DFS primary endpoint, OS secondary, p=0.005, 95% CI 1.035-1.212): 1.120
predictive HR, ATM (SCC, univariate Cox PH, biomarker Q score, DFS primary endpoint, OS secondary, p=0.010, 95% CI 1.046-1.405): 1.212
predictive HR, MSH2 (SCC, univariate Cox PH, biomarker Q score, DFS primary endpoint, OS secondary, p=0.012, 95% CI 1.044-1.42): 1.218
HazardRatio, Treatment [28]: 0.628
HazardRatio, XPF_Treatment [28]: 1.179
HazardRatio, Treatment [29]: 0.689
HazardRatio, XPF_Treatment [29]: 1.166
HazardRatio, Treatment [30]: 0.900
HazardRatio, XPF_Treatment [30]: 1.080
HazardRatio, Treatment [31]: 0.813
HazardRatio, XPF_Treatment [31]: 1.030
HazardRatio, Treatment [32]: 0.820
HazardRatio, XPF_Treatment [32]: 1.035
HazardRatio, Treatment [33]: 0.759
HazardRatio, XPF_Treatment [33]: 1.063
